From PMC12090182, “Repurposing of the RIPK1-Selective Benzo[1,4]oxazepin-4-one Scaffold for the Development of a Type III LIMK1/2 Inhibitor” (ACS Chemical Biology, 2025)

Tests used:
Assay in all cases: scanMAX KINOMEscan (Eurofins)
Type in all cases: binding
ALK = ALK (Homo sapiens, UniProt Q9UM73); conditions: read-out: Percent Control
From the text: (§1) Supplement cb5c00097_si_002.xlsx, sheet "Table S6 (Eurofins Selectivity)" | column: Percent Control

BMPR1B = BMPR1B (Homo sapiens, UniProt O00238); conditions: read-out: Percent Control
From the text: as §1

BRK = BRK (Homo sapiens, UniProt Q13882); conditions: 1000 nM, read-out: Percent Control
From the text: as §1

CAMK1 = CAMK1 (Homo sapiens, UniProt Q14012); conditions: read-out: Percent Control
From the text: as §1

CDK5 = CDK5 (Homo sapiens, UniProt Q00535); conditions: read-out: Percent Control
CDK5, sequence (Q15078 whole entry): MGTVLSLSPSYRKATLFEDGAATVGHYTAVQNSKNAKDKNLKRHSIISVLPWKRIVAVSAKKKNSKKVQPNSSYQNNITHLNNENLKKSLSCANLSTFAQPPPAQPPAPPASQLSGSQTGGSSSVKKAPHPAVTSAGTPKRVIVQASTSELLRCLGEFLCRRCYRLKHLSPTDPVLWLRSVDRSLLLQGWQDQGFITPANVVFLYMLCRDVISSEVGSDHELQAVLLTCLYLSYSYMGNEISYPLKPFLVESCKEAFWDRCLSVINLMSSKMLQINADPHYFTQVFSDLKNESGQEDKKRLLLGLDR
CDK5, sequence (Q00535 whole entry): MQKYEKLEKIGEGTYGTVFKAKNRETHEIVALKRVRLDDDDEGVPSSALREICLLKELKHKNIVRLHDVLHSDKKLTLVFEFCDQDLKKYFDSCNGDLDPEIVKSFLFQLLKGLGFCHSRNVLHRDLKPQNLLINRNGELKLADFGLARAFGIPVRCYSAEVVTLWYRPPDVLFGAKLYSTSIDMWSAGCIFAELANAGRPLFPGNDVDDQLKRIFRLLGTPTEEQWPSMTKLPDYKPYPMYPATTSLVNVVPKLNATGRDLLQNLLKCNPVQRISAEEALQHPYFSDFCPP
From the text: as §1

CHEK1 = CHEK1 (Homo sapiens, UniProt O14757); conditions: read-out: Percent Control
CHEK1, sequence (O14757 whole entry): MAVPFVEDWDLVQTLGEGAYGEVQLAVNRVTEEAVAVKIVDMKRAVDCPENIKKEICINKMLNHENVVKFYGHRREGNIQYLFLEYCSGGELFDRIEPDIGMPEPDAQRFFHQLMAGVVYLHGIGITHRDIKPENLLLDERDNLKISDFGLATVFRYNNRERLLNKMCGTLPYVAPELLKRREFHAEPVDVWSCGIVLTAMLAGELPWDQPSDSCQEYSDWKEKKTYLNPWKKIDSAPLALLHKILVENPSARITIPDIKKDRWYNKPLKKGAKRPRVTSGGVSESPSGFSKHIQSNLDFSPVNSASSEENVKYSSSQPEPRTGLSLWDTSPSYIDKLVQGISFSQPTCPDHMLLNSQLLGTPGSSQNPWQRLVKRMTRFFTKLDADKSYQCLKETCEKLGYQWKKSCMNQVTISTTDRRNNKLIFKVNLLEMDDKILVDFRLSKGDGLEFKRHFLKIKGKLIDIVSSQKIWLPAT
From the text: as §1

CSNK1E = CSNK1E (Homo sapiens, UniProt P49674); conditions: read-out: Percent Control
CSNK1E, sequence (P49674 whole entry): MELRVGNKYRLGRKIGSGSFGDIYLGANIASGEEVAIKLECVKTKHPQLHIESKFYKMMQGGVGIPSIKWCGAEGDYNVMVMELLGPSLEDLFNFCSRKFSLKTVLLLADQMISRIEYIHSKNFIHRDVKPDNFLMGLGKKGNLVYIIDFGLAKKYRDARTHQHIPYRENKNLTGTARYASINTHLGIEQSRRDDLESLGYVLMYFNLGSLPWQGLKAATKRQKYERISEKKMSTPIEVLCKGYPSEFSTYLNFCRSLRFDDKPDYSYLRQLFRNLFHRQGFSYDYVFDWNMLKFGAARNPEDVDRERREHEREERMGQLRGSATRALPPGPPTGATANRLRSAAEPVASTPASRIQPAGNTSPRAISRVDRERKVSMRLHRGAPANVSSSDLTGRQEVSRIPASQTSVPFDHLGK
From the text: as §1

EPHA1 = EPHA1 (Homo sapiens, UniProt P21709); conditions: 1000 nM, read-out: Percent Control
From the text: as §1

EPHA7 = EPHA7 (Homo sapiens, UniProt Q15375); conditions: read-out: Percent Control
EPHA7, sequence (Q15375 28-998): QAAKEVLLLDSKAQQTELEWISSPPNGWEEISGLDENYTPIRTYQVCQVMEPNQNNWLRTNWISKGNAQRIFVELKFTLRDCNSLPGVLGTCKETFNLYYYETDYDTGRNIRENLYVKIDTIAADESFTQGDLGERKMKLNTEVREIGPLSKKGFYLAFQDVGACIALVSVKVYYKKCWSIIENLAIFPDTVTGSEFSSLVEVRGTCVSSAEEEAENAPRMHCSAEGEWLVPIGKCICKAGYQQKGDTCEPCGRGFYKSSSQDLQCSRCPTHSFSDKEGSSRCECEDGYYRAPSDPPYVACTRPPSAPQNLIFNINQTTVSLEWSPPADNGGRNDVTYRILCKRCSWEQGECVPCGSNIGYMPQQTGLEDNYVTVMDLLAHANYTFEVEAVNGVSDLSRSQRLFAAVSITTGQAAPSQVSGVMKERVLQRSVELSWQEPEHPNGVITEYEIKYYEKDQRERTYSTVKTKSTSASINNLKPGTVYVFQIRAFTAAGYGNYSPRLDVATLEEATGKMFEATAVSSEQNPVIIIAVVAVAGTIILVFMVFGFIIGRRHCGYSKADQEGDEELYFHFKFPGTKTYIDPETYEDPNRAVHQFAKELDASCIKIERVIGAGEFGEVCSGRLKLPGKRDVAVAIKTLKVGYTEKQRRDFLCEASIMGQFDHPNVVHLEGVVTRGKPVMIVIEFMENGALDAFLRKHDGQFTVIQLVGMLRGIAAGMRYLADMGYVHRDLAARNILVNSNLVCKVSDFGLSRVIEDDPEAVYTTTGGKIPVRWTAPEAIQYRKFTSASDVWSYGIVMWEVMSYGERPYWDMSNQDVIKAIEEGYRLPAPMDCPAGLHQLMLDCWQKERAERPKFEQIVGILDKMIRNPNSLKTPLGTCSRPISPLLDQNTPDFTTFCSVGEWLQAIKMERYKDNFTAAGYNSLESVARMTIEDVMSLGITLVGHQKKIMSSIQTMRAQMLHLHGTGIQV
From the text: as §1

EPHB6 = EPHB6 (Homo sapiens, UniProt O15197); conditions: 1000 nM, read-out: Percent Control
From the text: as §1

ERK3 = ERK3 (Homo sapiens, UniProt Q16659); conditions: read-out: Percent Control
ERK3, sequence (Q16659 whole entry): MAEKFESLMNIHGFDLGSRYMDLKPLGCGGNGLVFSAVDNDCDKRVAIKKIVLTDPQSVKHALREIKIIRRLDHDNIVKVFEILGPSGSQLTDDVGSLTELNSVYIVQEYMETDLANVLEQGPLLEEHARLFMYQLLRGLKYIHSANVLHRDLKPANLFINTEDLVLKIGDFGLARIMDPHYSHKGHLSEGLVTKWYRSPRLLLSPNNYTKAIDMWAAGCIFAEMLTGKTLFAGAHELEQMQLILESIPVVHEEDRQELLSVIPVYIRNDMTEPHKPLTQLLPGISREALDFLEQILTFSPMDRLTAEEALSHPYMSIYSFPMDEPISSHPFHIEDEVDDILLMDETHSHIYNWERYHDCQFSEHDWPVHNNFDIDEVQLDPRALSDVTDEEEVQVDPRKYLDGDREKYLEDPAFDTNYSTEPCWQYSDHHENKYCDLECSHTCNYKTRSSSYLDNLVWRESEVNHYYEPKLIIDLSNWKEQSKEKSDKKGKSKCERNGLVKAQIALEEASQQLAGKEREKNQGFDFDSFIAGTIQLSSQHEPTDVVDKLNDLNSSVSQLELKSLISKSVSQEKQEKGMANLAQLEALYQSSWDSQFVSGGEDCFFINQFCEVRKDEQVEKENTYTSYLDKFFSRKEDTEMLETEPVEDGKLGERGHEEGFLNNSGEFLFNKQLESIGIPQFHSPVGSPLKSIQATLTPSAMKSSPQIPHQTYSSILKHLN
From the text: as §1

FLT4 = FLT4 (Homo sapiens, UniProt P35916); conditions: 1000 nM, read-out: Percent Control
From the text: as §1

FYN = FYN (Homo sapiens, UniProt P06241); conditions: 1000 nM, read-out: Percent Control
From the text: as §1

GRK2 = GRK2 (Homo sapiens, UniProt P25098); conditions: read-out: Percent Control
From the text: as §1

GSK3A = GSK3A (Homo sapiens, UniProt P49840); conditions: 1000 nM, read-out: Percent Control
From the text: as §1

GSK3B = GSK3B (Homo sapiens, UniProt P49841); conditions: read-out: Percent Control
From the text: as §1

HIPK4 = HIPK4 (Homo sapiens, UniProt Q8NE63); conditions: 1000 nM, read-out: Percent Control
From the text: as §1

INSR = INSR (Homo sapiens, UniProt P06213); conditions: 1000 nM, read-out: Percent Control
From the text: as §1

KIT-autoinhibited = KIT-autoinhibited (Homo sapiens, UniProt P10721); conditions: 1000 nM, read-out: Percent Control
From the text: as §1

LTK = LTK (Homo sapiens, UniProt P29376); conditions: 1000 nM, read-out: Percent Control
From the text: as §1

MEK5 = MEK5 (Homo sapiens, UniProt Q13163); conditions: 1000 nM, read-out: Percent Control
From the text: as §1

MEK6 = MEK6 (Homo sapiens, UniProt P52564); conditions: compound concentration 100 nM; Entrez MAP2K6; read-out: Percent Control
From the text: as §1

NDR1 = NDR1 (Homo sapiens, UniProt Q15208); conditions: 1000 nM, read-out: Percent Control
From the text: as §1

NLK = NLK (Homo sapiens, UniProt Q9UBE8); conditions: 1000 nM, read-out: Percent Control
From the text: as §1

PCTK3 = PCTK3 (Homo sapiens, UniProt Q07002); conditions: 1000 nM, read-out: Percent Control
From the text: as §1

PKN2 = PKN2 (Homo sapiens, UniProt Q16513); conditions: compound concentration 100 nM; Entrez PKN2; read-out: Percent Control
From the text: as §1

PRKCH = PRKCH (Homo sapiens, UniProt P24723); conditions: compound concentration 100 nM; Entrez PRKCH; read-out: Percent Control
From the text: as §1

RET = RET (Homo sapiens, UniProt P07949); conditions: compound concentration 100 nM; Entrez RET; read-out: Percent Control
From the text: as §1

[1] = biological target: RPS6KA5(Kin.Dom.2-C-terminal) (Homo sapiens, UniProt O75582); conditions: compound concentration 100 nM; Entrez RPS6KA5; read-out: Percent Control
RPS6KA5(Kin.Dom.2-C-terminal), sequence (O75582 426-687): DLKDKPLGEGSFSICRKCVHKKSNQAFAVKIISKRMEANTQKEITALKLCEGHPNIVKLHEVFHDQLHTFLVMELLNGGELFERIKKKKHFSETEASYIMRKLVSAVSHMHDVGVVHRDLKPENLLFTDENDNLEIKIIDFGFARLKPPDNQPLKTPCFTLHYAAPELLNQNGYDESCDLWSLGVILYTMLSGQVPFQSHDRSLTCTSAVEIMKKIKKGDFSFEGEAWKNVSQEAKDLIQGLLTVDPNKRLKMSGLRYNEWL
From the text: as §1

SGK3 = SGK3 (Homo sapiens, UniProt Q96BR1); conditions: 1000 nM, read-out: Percent Control
From the text: as §1

SIK = SIK (Homo sapiens, UniProt P57059); conditions: 1000 nM, read-out: Percent Control
From the text: as §1

STK35 = STK35 (Homo sapiens, UniProt Q8TDR2); conditions: compound concentration 100 nM; Entrez STK35; read-out: Percent Control
From the text: as §1

TAOK3 = TAOK3 (Homo sapiens, UniProt Q9H2K8); conditions: 1000 nM, read-out: Percent Control
From the text: as §1

TIE1 = TIE1 (Homo sapiens, UniProt P35590); conditions: 1000 nM, read-out: Percent Control
From the text: as §1

VEGFR2 = VEGFR2 (Homo sapiens, UniProt P35968); conditions: 1000 nM, read-out: Percent Control
From the text: as §1

p38-gamma = p38-gamma (Homo sapiens, UniProt P53778); conditions: 1000 nM, read-out: Percent Control
From the text: as §1

ALK, sequence (Q9UM73 19-1620): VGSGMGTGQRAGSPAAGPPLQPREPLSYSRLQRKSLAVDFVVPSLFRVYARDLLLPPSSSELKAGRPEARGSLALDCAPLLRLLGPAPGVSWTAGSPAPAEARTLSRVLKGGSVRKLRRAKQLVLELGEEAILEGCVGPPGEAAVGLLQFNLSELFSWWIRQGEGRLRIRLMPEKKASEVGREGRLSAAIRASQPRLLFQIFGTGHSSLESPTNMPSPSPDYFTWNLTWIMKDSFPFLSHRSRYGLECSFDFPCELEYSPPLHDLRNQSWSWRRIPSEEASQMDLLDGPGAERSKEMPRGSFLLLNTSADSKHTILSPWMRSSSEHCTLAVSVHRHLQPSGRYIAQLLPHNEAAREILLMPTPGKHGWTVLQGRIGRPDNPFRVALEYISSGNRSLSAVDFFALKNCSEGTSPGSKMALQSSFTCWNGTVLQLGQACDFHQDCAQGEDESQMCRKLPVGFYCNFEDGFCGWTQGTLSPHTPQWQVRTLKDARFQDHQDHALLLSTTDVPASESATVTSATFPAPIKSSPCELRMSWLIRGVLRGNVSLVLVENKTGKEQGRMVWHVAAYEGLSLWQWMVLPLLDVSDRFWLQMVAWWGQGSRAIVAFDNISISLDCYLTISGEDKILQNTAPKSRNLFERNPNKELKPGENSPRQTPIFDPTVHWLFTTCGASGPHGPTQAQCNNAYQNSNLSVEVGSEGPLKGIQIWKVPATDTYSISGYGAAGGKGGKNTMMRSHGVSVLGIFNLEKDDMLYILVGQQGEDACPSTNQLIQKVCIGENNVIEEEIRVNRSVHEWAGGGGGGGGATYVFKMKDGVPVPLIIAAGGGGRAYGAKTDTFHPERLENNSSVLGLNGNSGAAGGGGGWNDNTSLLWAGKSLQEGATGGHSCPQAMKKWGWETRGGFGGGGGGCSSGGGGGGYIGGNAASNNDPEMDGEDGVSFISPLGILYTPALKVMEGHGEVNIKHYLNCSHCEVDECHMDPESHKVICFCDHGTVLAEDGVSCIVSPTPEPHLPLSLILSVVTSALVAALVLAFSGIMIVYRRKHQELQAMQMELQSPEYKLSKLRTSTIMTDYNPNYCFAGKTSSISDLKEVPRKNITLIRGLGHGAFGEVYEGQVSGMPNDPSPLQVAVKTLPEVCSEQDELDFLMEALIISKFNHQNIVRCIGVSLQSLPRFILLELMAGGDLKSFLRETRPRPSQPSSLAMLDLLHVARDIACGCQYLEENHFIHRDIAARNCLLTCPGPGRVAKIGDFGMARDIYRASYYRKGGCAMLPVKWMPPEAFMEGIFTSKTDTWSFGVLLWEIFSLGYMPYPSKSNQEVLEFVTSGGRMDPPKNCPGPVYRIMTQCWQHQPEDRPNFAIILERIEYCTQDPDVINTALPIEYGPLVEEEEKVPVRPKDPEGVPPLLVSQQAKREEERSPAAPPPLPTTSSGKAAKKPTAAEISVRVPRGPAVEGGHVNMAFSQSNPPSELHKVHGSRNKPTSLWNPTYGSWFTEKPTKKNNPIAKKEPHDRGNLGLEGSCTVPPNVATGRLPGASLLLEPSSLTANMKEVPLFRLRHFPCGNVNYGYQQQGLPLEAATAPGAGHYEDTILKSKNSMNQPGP

## CN1C(=O)[C@@H](N2CCc3c(nn(Cc4ccccc4)c3C(N)=O)C2=O)COc2cc(Cl)ccc21 [Compound 10, (S)-2-benzyl-6-(8-chloro-5-methyl-4-oxo-2,3,4,5-tetrahydrobenzo[b][1,4]oxazepin-3-yl)-7-oxo-4,5,6,7-tetrahydro-2H-pyrazolo[3,4-c]pyridine-3-carboxamide]
ALK; 1000 nM
  remaining binding at 1 µM: 100%
ALK; compound concentration 100 nM, Entrez ALK
  remaining binding at 0.1 µM: 84%
BMPR1B; 1000 nM
  remaining binding at 1 µM: 100%
BMPR1B; compound concentration 100 nM, Entrez BMPR1B
  remaining binding at 0.1 µM: 88%
BRK
  remaining binding at 1 µM: 87%
CAMK1; 1000 nM
  remaining binding at 1 µM: 100%
CAMK1; compound concentration 100 nM, Entrez CAMK1
  remaining binding at 0.1 µM: 90%
CDK5; 1000 nM
  remaining binding at 1 µM: 99%
CDK5; compound concentration 100 nM, Entrez CDK5
  remaining binding at 0.1 µM: 78%
CHEK1; 1000 nM
  remaining binding at 1 µM: 100%
CHEK1; compound concentration 100 nM, Entrez CHEK1
  remaining binding at 0.1 µM: 86%
CSNK1E; 1000 nM
  remaining binding at 1 µM: 100%
CSNK1E; compound concentration 100 nM, Entrez CSNK1E
  remaining binding at 0.1 µM: 91%
EPHA1
  remaining binding at 1 µM: 87%
EPHA7; 1000 nM
  remaining binding at 1 µM: 100%
EPHA7; compound concentration 100 nM, Entrez EPHA7
  remaining binding at 0.1 µM: 91%
EPHB6
  remaining binding at 1 µM: 94%
ERK3; 1000 nM
  remaining binding at 1 µM: 100%
ERK3; compound concentration 100 nM, Entrez MAPK6
  remaining binding at 0.1 µM: 87%
FLT4
  remaining binding at 1 µM: 92%
FYN
  remaining binding at 1 µM: 77%
GRK2; 1000 nM
  remaining binding at 1 µM: 99%
GRK2; compound concentration 100 nM, Entrez ADRBK1
  remaining binding at 0.1 µM: 91%
GSK3A
  remaining binding at 1 µM: 98%
GSK3B; 1000 nM
  remaining binding at 1 µM: 100%
GSK3B; compound concentration 100 nM, Entrez GSK3B
  remaining binding at 0.1 µM: 100%
HIPK4
  remaining binding at 1 µM: 87%
INSR
  remaining binding at 1 µM: 98%
KIT-autoinhibited
  remaining binding at 1 µM: 97%
LTK
  remaining binding at 1 µM: 86%
MEK5
  remaining binding at 1 µM: 82%
MEK6
  remaining binding at 0.1 µM: 88%
NDR1
  remaining binding at 1 µM: 97%
NLK
  remaining binding at 1 µM: 98%
PCTK3
  remaining binding at 1 µM: 88%
PKN2
  remaining binding at 0.1 µM: 90%
PRKCH
  remaining binding at 0.1 µM: 92%
RET
  remaining binding at 0.1 µM: 100%
[1]
  remaining binding at 0.1 µM: 95%
SGK3
  remaining binding at 1 µM: 90%
SIK
  remaining binding at 1 µM: 91%
STK35
  remaining binding at 0.1 µM: 87%
TAOK3
  remaining binding at 1 µM: 96%
TIE1
  remaining binding at 1 µM: 94%
VEGFR2
  remaining binding at 1 µM: 92%
p38-gamma
  remaining binding at 1 µM: 70%
